Measured values as given in patent US20230219965A1 (KSQ Therapeutics, Inc., priority 2020, published 2023).
Read-outs that look alike come from different tables or passages of the source.

Assays:
USP1/UAF1 enzyme = USP1/UAF1 enzyme (Homo sapiens, UniProt O94782); test: USP1/UAF1 deubiquitination assay (ubiquitin-rhodamine 110 substrate); type: biochemical; details: read-out: USP1 IC50 (Ub-Rho)
Outline: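 0.05 nM USP1/UAF1 was preincubated 10 min with compounds (dose response from 10 μM) in 50 mM Tris-HCl pH 7.8, 0.5 mM EDTA, 0.01% BSA, 1 mM DTT, 0.01% Tween-20. 150 nM ubiquitin-rhodamine 110 started the reaction, read kinetically 30 min at Ex480/Em540; IC50 by four-parameter fit versus no-enzyme and DMSO controls.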

[1] = ADME solubility determination in PBS at pH 2.0 and pH 7.4; type: physicochemical; details: phosphate buffered saline, 25 °C, thermodynamic from solid
Description: Certain Compounds of the Disclosure were assessed for ADME solubility at pH 2.0 and pH 7.4.
Stock solutions were prepared by adding each compound to DMSO at a concentration of 10 mM. Samples were prepared by adding 50 μL of each stock solution to separate vials. The vials were loaded onto a 96-well rack and dried. 500 μL of Phosphate Buffered Saline (PBS) pH 7.4 or PBS pH 2.0 were added into each vial. The vials were then shaken at 25° C. and 1,100 rpm for 24 hours.
After 24 hours, the vials were centrifuged at 3220 G and 25° C. for 30 minutes. The supernatant fluid was analyzed by LC-MS/MS against a standard of known concentration. The solubility of each sample was then calculated using the equation below: […]
where DF is the dilution factor.

[2] = Liver microsomal metabolic stability, rat liver microsomes (RLM); details: rat, liver microsomes, t1/2 (min) in RLM, 1 μM compound, 1 mg/mL microsomes, NADPH
[3] = Liver microsomal metabolic stability, human liver microsomes (HLM); details: human, liver microsomes
[4] = pH 2, aqueous buffer, PBS pH 2.0, 25° C., read-out: Solubility at pH 2.0
[5] = pH 7.4, aqueous buffer, PBS pH 7.4, 25° C., read-out: Solubility at pH 7.4

USP1/UAF1 enzyme, sequence (O94782 whole entry): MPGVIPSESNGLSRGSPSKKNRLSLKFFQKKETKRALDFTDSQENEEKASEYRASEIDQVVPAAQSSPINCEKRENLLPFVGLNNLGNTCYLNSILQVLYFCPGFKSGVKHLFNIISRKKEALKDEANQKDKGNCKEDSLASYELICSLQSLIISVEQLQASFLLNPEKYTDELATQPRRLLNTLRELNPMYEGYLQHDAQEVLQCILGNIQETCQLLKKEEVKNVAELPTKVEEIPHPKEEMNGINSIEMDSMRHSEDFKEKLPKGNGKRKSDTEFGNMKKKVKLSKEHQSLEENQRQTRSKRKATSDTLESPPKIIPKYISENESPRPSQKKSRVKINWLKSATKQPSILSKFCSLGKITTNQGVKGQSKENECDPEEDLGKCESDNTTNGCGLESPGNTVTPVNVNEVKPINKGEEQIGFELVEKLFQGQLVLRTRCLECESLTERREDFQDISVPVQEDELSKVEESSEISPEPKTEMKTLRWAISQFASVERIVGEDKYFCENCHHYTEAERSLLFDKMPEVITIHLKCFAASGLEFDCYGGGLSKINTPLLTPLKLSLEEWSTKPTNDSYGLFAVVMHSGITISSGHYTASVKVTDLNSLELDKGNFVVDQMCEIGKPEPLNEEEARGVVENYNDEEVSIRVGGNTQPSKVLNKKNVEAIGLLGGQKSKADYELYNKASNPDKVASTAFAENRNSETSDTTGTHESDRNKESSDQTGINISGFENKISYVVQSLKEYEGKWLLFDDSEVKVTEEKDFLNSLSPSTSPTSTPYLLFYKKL
USP1/UAF1 enzyme, sequence (Q8TAF3 whole entry partner): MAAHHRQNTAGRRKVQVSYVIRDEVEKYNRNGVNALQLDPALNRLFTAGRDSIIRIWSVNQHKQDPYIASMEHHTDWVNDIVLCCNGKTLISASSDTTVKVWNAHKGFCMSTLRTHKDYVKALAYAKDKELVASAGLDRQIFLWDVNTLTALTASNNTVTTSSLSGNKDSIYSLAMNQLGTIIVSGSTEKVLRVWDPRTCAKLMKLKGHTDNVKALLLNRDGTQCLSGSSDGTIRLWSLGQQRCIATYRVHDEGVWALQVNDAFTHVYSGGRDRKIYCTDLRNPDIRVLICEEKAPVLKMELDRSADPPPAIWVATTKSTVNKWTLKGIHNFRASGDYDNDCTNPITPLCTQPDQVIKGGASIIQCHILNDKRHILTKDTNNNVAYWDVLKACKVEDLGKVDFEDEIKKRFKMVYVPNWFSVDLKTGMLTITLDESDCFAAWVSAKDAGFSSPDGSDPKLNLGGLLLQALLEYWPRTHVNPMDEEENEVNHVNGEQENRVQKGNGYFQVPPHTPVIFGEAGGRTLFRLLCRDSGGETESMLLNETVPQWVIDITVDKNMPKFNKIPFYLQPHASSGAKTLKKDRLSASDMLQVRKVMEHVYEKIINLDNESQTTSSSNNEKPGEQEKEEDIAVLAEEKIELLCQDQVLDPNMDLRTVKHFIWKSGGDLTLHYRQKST

SMILES | IC50 (USP1/UAF1 enzyme) | solubility at 24 h [1, 4] | solubility at 24 h [1, 5] | half-life at 1 μM [2] | half-life at 1 μM [3]
Cc1cnn(C(C)C)c1-c1cc2n(n1)CC(C)C(=O)N2Cc1ccc(-c2nc(C(F)(F)F)cn2C)cc1 (stereo not drawn) [Example 31, 2-(1-isopropyl-4-methyl-1H-pyrazol-5-yl)-6-methyl-4-(4-(1-methyl-4-(trifluoromethyl)-1H-imidazol-2-yl)benzyl)-6,7-dihydropyrazolo[1,5-α]pyrimidin-5(4H)-one] | 100 to 500 nM | ≥ 10 µM | < 10 µM | < 25 min | < 25 min
Cc1cnn(C(C)C)c1-c1nn2c(c1Cl)N(Cc1ccc(-c3nc(C(F)(F)F)cn3C)cc1)C(=O)CC2 [Example 34] | 100 to 500 nM | < 10 µM | < 10 µM | < 25 min | < 25 min
Cc1cnn(C(C)C)c1-c1cc2n(n1)C(C)CC(=O)N2Cc1ccc(-c2nc(C(F)(F)F)cn2C)cc1 (stereo not drawn) [Example 36, 2-(1-isopropyl-4-methyl-1H-pyrazol-5-yl)-7-methyl-4-(4-(1-methyl-4-(trifluoromethyl)-1H-imidazol-2-yl)benzyl)-6,7-dihydropyrazolo[1,5-α]pyrimidin-5(4H)-one] | < 100 nM | ≥ 10 µM | ≥ 10 µM | < 25 min | < 25 min
Cc1cnn(C(C)C)c1-c1cc2n(n1)CCCN2Cc1ccc(-n2nc(C(F)(F)F)cc2C)cc1 [Example 52, 2-(1-isopropyl-4-methyl-1H-pyrazol-5-yl)-4-(4-(5-methyl-3-(trifluoromethyl)-1H-pyrazol-1-yl)benzyl)-4,5,6,7-tetrahydropyrazolo[1,5-α]pyrimidine] | < 100 nM | < 10 µM | < 10 µM | < 25 min | < 25 min
Cc1cnn(C(C)C)c1-c1cc2n(n1)CCCN2Cc1ccc(-n2nc(C(F)(F)F)cc2C)c(F)c1 [Example 56] | < 100 nM | < 10 µM | < 10 µM | < 25 min | < 25 min
CCn1cc(C(F)(F)F)nc1-c1ccc(CN2CCCn3nc(-c4c(Cl)cnn4C(C)C)cc32)cc1F [Example 60] | < 100 nM | < 10 µM | < 10 µM | < 25 min | < 25 min
CCn1cc(C(F)(F)F)nc1-c1ccc(CN2C(=O)CCn3nc(-c4c(Cl)cnn4C(C)C)cc32)cc1F [Example 77, 2-(4-chloro-1-isopropyl-1H-pyrazol-5-yl)-4-(4-(1-ethyl-4-(trifluoromethyl)-1H-imidazol-2-yl)-3-fluorobenzyl)-6,7-dihydropyrazolo[1,5-α]pyrimidin-5(4H)-one] | < 100 nM | < 10 µM | < 10 µM | < 25 min | > 25 min
Cc1cn(C)nc1-c1ccc(CN2C(=O)CCn3nc(-c4c(Cl)cnn4C(C)C)cc32)cc1 [Example 93] | < 100 nM | < 10 µM | < 10 µM | < 25 min | < 25 min
COCc1cc(C(F)(F)F)nn1-c1ccc(CN2C(=O)CCn3nc(-c4c(Cl)cnn4C(C)C)cc32)cc1 [Example 100] | < 100 nM | < 10 µM | < 10 µM | < 25 min | < 25 min
COc1cc(C#N)nn1-c1ccc(CN2C(=O)CCn3nc(-c4c(Cl)cnn4C(C)C)cc32)cc1 [Example 106] | < 100 nM | < 10 µM | < 10 µM | > 25 min | > 25 min
CC(C)n1cc([N+](=O)[O-])nc1-c1ccc(CN2C(=O)CCn3nc(-c4c(Cl)cnn4C(C)C)cc32)cc1 [Example 112] | < 100 nM | < 10 µM | < 10 µM | < 25 min | > 25 min
CC(C)n1ncc(Cl)c1-c1cc2n(n1)CCC(=O)N2Cc1ccc(-c2cn(C)c(C(F)(F)F)n2)c(F)c1 [Example 130] | 100 to 500 nM | < 10 µM | < 10 µM | > 25 min | > 25 min
CCn1cc(C(F)(F)F)nc1-c1ccc(CN2C(=O)CCn3nc(-c4c(Cl)cnn4C4COC4)cc32)cc1 [Example 154, 2-(4-chloro-1-(oxetan-3-yl)-1H-pyrazol-5-yl)-4-(4-(1-ethyl-4-(trifluoromethyl)-1H-imidazol-2-yl)benzyl)-6,7-dihydropyrazolo[1,5-α]pyrimidin-5(4H)-one] | < 100 nM | < 10 µM | < 10 µM | > 25 min | > 25 min
CCn1cc(C(F)(F)F)nc1-c1ccc(CN2C(=O)CCn3nc(-c4c(C#N)cnn4C(C)C)cc32)cc1 [Example 156] | < 100 nM | < 10 µM | < 10 µM | > 25 min | > 25 min
CCn1cc(C(F)(F)F)nc1-c1c(F)cc(CN2C(=O)CCn3nc(-c4c(Cl)cnn4C(C)C)nc32)cc1OC [Example 187] | 100 to 500 nM | < 10 µM | < 10 µM | < 25 min | > 25 min
CCn1cc(C(F)(F)F)nc1-c1ccc(CN2C(=O)CCn3nc(-c4c(Cl)cnn4C(C)C)c(C#N)c32)cc1 [Example 223, 2-(4-chloro-1-isopropyl-1H-pyrazol-5-yl)-4-(4-(1-ethyl-4-(trifluoromethyl)-1H-imidazol-2-yl)benzyl)-5-oxo-4,5,6,7-tetrahydropyrazolo[1,5-α]pyrimidine-3-carbonitrile] | < 100 nM | < 10 µM | < 10 µM | > 25 min | < 25 min
CC(C)n1ncc(Cl)c1-c1cc2n(n1)CC(O)C(=O)N2Cc1ccc(-c2nc(C(F)(F)F)cn2C)cc1 (stereo not drawn) [Example 231, 2-(4-chloro-1-isopropyl-1H-pyrazol-5-yl)-6-hydroxy-4-(4-(1-methyl-4-(trifluoromethyl)-1H-imidazol-2-yl)benzyl)-6,7-dihydropyrazolo[1,5-α]pyrimidin-5(4H)-one] | 100 to 500 nM | < 10 µM | < 10 µM | > 25 min | > 25 min

Further lines, results first:

IC50 (USP1/UAF1 enzyme) | solubility at 24 h [1, 4] | solubility at 24 h [1, 5] | half-life at 1 μM [2] | half-life at 1 μM [3] | SMILES
< 100 nM | ≥ 10 µM | < 10 µM | > 25 min | > 25 min | COc1ncnc(C2CC2)c1-c1cc2n(n1)CC(C)C(=O)N2Cc1ccc(-c2nc(C(F)(F)F)cn2C)cc1 (centres unmarked) [Example 32]
100 to 500 nM | ≥ 10 µM | < 10 µM | < 25 min | < 25 min | COc1cc([C@H](C)N2C(=O)CCn3nc(-c4c(OC)ncnc4C4CC4)cc32)ccc1-c1nc(C(F)(F)F)cn1C(C)C [Example 128]
100 to 500 nM | ≥ 10 µM | < 10 µM | < 25 min | < 25 min | CCn1cc(C(F)(F)F)nc1-c1ccc([C@H](C)N2C(=O)CCn3nc(-c4c(Cl)cnn4C(C)C)nc32)cc1OC [Example 179]
< 100 nM | < 10 µM | < 10 µM | > 25 min | > 25 min | COc1cc(-c2nc(C(F)(F)F)cn2C(C)C)c(F)cc1CN1C(=O)CCn2nc(-c3c(OC)ncnc3C3CC3)nc21 [Example 202]
< 100 nM | < 10 µM | ≥ 10 µM | > 25 min | < 25 min | COc1ncnc(C2CC2)c1-c1nc2n(n1)CCC(=O)N2[C@@H](C)c1ccc(-c2nc(C(F)(F)F)c(Br)n2C)cc1 [Example 205]
100 to 500 nM | ≥ 10 µM | < 10 µM | > 25 min | < 25 min | COc1ccnc(C2CC2)c1-c1nc2n(n1)CCC(=O)N2Cc1ccc(-c2nc(C(F)(F)F)cn2C(C)C)c(F)c1 [Example 207]
< 100 nM | ≥ 10 µM | ≥ 10 µM | < 25 min | > 25 min | CCn1cc(C(F)(F)F)nc1-c1ccc([C@@H](C)N2C(=O)CCn3nc(-c4c(OC(F)F)ncnc4C4CC4)nc32)cc1 [Example 208]
< 100 nM | ≥ 10 µM | < 10 µM | < 25 min | < 25 min | CCn1cc(C(F)(F)F)nc1-c1ccc([C@H](C)N2C(=O)CCn3nc(-c4c(OC(F)F)ncnc4C4CC4)nc32)cc1 [Example 209]
